Measured values as given in PubChem BioAssay (NCI).
“And” between values parts separate entries of the source, which are not always exact repeats. Equal entries are not always repeated.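 1) Cells in 96-well plates. 2) Compound, 48 h, 5 concentrations. 3) Linear interpolation between surrounding doses. 4) Unreached endpoint = highest concentration. GI50 marks 50% less growth. At the TGI there is no net growth.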

Assays:
Assay in all cases: NCI-60 cell line screen, 48 h
SK-MEL-2 melanoma = tested on: SK-MEL-2 melanoma
CAKI-1 renal = tested on: CAKI-1 renal
MDA-MB-231 breast = tested on: MDA-MB-231 breast
RXF 393 renal = tested on: RXF 393 renal
K-562 leukemia = tested on: K-562 leukemia
PC-3 prostate = tested on: PC-3 prostate
SR leukemia = tested on: SR leukemia
U251 CNS = tested on: U251 CNS
IGROV1 ovarian = tested on: IGROV1 ovarian
SNB-19 CNS = tested on: SNB-19 CNS

| Structure (SMILES) | GI50 (SK-MEL-2 melanoma) [µM] | TGI (SK-MEL-2 melanoma) | GI50 (CAKI-1 renal) [µM] | TGI (CAKI-1 renal) | GI50 (MDA-MB-231 breast) [µM] | TGI (MDA-MB-231 breast) [µM] | GI50 (RXF 393 renal) [µM] | TGI (RXF 393 renal) [µM] | GI50 (K-562 leukemia) [µM] | TGI (K-562 leukemia) [µM] | GI50 (PC-3 prostate) [µM] | TGI (PC-3 prostate) [µM] | GI50 (SR leukemia) [µM] | TGI (SR leukemia) [µM] | GI50 (U251 CNS) [µM] | TGI (U251 CNS) [µM] | GI50 (IGROV1 ovarian) [µM] | TGI (IGROV1 ovarian) [µM] | GI50 (SNB-19 CNS) [µM] | TGI (SNB-19 CNS) [µM] |
| --- | --- | --- | --- | --- | --- | --- | --- | --- | --- | --- | --- | --- | --- | --- | --- | --- | --- | --- | --- | --- |
| CCN(CC)c1ccc2nc3ccc(=[N+](CC)CC)cc-3oc2c1 | 1.36 | 3.99 µM | 2.71 | > 31.8 µM | 0.0667 | 2.96 | 1.63 | 9.84 | 0.174 | > 100 | 0.0934 | > 100 | 0.424 | > 44.3 | 0.119 | > 100 | 0.107 | 0.862 | 0.786 | > 35.3 |
| COCCN(Cc1ccc(F)cc1)c1ccc(CO)c(Cl)c1 | 20.6 | 59.5 µM | 21.2 | > 100 µM | 24.1 | > 85.3 | 4.9 | > 34.6 | 10 | > 100 | 29.4 | > 100 | 47.9 | > 100 | 6.33 | > 54.7 | 0.559 | 3.7 | 33.4 | > 100 |
| CCCCCC(=O)O[C@]1(C(C)=O)CCC2C3CCC4=CC(=O)CC[C@]4(C)C3CC[C@@]21C (some centres not stated) | 2.87 | 7.73 µM | 1.75 | 8.22 µM | 2.49 | 7.88 | 1.81 | 4.47 | 3.19 | 21.9 | 1.64 | 8.52 | 2.14 | 6.5 | 1.78 | 4.15 | 2.7 | 11.4 | 3.27 | > 64.8 |
| COCCN(CCOC)c1nc(-c2ccccc2)nc2ccccc12 | 19.2 | 44.6 µM | 23.2 | 73.2 µM | 59.4 | > 100 | 34.6 | > 100 | 36.1 | > 100 | 15.1 | 43.7 | 34.4 | > 100 | 70.1 | > 100 | 25.2 | 93.6 | 40.9 | > 100 |
| S=C1SCN(Cc2ccccc2)CN1Cc1ccco1 | 3.04 | 11.9 µM | 4.81 | 17.4 µM | 3.17 | 12.3 | 2 | 5.53 | 3.62 | > 100 | 5.75 | 61.6 | 1.87 | > 100 | 21.3 | 68.3 | 8.47 | 26.4 | 35.5 | > 100 |
| C=CCN(CC=C)C(=O)c1cc(C)nc2c1c(=O)n(-c1ccccc1)c(=O)n2CCCN1CCN(c2ccccc2OC)CC1 | > 50 | > 50 µM | > 50 | > 50 µM | > 50 | > 50 | > 50 | > 50 | > 50 | > 50 | > 50 | > 50 | > 50 | > 50 | > 50 | > 50 | > 50 | > 50 | > 50 | > 50 |
| Cc1cc(Br)c(NC(=O)c2c(-c3c(Cl)cccc3Cl)noc2C)c(Br)c1 | > 100 | > 100 µM | 7.81 | > 100 µM | > 100 | > 100 | 71.9 | > 100 | > 100 | > 100 | > 100 | > 100 | > 100 | > 100 | > 100 | > 100 | > 100 | > 100 | > 100 | > 100 |
| C=C(CN1CCc2[nH]c3ccc(F)cc3c2C1)c1ccc(C(=O)Nc2ccccc2N)cc1 | 1.07 | 8.14 µM | 1.93 | 5.91 µM | 2.82 | 11.3 | 0.269 | 0.949 | 1.06 | 14.6 | 4.32 | 52.3 | 0.795 | 20.1 | 2.91 | 11.2 | 0.41 | 3.53 | 3.73 | 21.7 |
| COC12C(COC(=O)NCCO)C3=C(C(=O)C(C)=C(N)C3=O)N1CC1NC12 (configuration not stated) | – | 79.9 µM and 75.5 µM | 4.99 | 28.2 µM and 21.7 µM | – | > 264 | 141 | > 264 | – | > 264 | – | 248 | – | > 264 | 45.4 | – | 39.8 | 116 | – | 169 |
| O=C(Nc1ccc(OC(F)(F)Cl)cc1)c1cnc(N2CC[C@@H](O)C2)c(-c2ccn[nH]2)c1 | 12.9 | 29.5 µM | 19.4 | 63 µM | 4.73 | 21.5 | 15.8 | 35.6 | – | 11 | 16.3 | 48.4 | 10.8 | 50.9 | 11.8 | 26.6 | 15.2 | 41.1 | 12.9 | 28.2 |
| [O]=[V]([OH])([OH])[OH] | > 100 | > 100 µM | 25.6 | 70.6 µM | > 100 | > 100 | > 100 | > 100 | > 100 | > 100 | > 100 | > 100 | 36.3 | > 100 | > 100 | > 100 | > 100 | > 100 | > 100 | > 100 |
